Measurements published in patent publication US9981940B2, “Aryl sulfide derivatives and aryl sulfoxide derivatives as acaricides and insecticides” (BAYER CROPSCIENCE AKTIENGESELLSCHAFT, priority 2013, dated 2018).

What was measured:
[1] = tested on: Tetranychus urticae; assay: Tetranychus urticae spray test, OP-resistant (TETRUR); format: in vivo; conditions: application rate of 500 g/ha, after 6 days; for pest or weed control at 500 g/ha: Tetranychus urticae, 144 h, read-out: efficacy
Procedure, shortened: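 Bean leaf discs infested with all stages of an OP-resistant Tetranychus urticae strain sprayed with compound in acetone/DMF with alkylaryl polyglycol ether emulsifier, diluted in water. Efficacy in % scored after 6 days; 100% means all mites killed.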

[2] = tested on: Meloidogyne incognita; assay: Meloidogyne incognita test (MELGIN); format: in vivo; conditions: application rate of 20 ppm; after 14 days, by formation of galls
Description: Meloidogyne Incognita Test (MELGIN)
• Solvent: 125.0 parts by weight of acetone
To produce an appropriate active ingredient formulation, 1 part by weight of active ingredient is mixed with the specified amounts of solvent and the concentrate is diluted to the desired concentration with water.
Vessels are filled with sand, active ingredient solution, an egg/larvae suspension of the southern root-knot nematode (Meloidogyne incognita) and lettuce seeds. The lettuce seeds germinate and the plants develop. The galls develop on the roots
After 14 days, the nematicidal efficacy in % is determined by the formation of galls. 100% means that no galls have been found; 0% means that the number of galls on the treated plants corresponds to the untreated control.

[3] = tested on: Boophilus microplus; assay: Boophilus microplus injection test (BOOPMI Inj); format: in vivo; conditions: application rate of 20 μg/animal, assessed after 7 days by laying of fertile eggs
Procedure, shortened: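 Engorged adult female ticks (5 per test) injected in the abdomen with 1 μl of compound solution in DMSO, then held in a climate-controlled room. Efficacy scored after 7 days from fertile egg laying, with 100% meaning no fertile eggs and 0% all eggs fertile.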

[4] = log P by HPLC (OECD Guideline 117), method [a] acidic range; format: physicochemical; conditions: for logP[a]: HPLC, method [a] acidic range; for chromatographic logP: reversed-phase C18 HPLC column, acidic range
Description: (§1) The log P values were determined analogously to OECD Guideline 117 (EC Directive 92/69/EEC) by HPLC (high-performance liquid chromatography) using reversed-phase columns (C 18), by the following methods:
[a] The LC-MS determination in the acidic range is effected at pH 2.7 with 0.1% aqueous formic acid and acetonitrile (contains 0.1% formic acid) as eluents; linear gradient from 10% acetonitrile to 95% acetonitrile.

[5] = tested on: Phaedon cochleariae; assay: Phaedon cochleariae spray test (PHAECO); format: in vivo; conditions: application rate of 500 g/ha, after 7 days
Description: Phaedon cochleariae—Spray Test (PHAECO)
• Solvent: 78.0 parts by weight of acetone • 1.5 parts by weight of dimethylformamide • Emulsifier: 0.5 part by weight of alkylaryl polyglycol ether
(§2) To produce an appropriate active ingredient formulation, 1 part by weight of active ingredient is mixed with the specified amounts of solvent and emulsifier, and the concentrate is diluted to the desired concentration with emulsifier-containing water.
Discs of Chinese cabbage leaves (Brassica pekinensis) are sprayed with an active ingredient formulation of the desired concentration and, after drying, populated with larvae of the mustard beetle (Phaedon cochleariae).
After 7 days, the efficacy in % is determined 100% means that all beetle larvae have been killed; 0% means that none of the beetle larvae have been killed.

[6] = log P by HPLC (OECD Guideline 117), method [b] neutral range; format: physicochemical; conditions: HPLC; for logP[b]: method [b] neutral range; for chromatographic logP: reversed-phase C18 HPLC column, neutral range, pH 7.8
Description: as §1
[b] The LC-MS determination in the neutral range is effected at pH 7.8 with 0.001 molar aqueous ammonium hydrogencarbonate solution and acetonitrile as eluents; linear gradient from 10% acetonitrile to 95% acetonitrile.

[7] = tested on: Myzus persicae; assay: Myzus persicae spray test (MYZUPE); format: in vivo; conditions: after 6 days
Description: Myzus persicae—Spray Test (MYZUPE)
• Solvent: 78 parts by weight of acetone • 1.5 parts by weight of dimethylformamide • Emulsifier: 0.5 part by weight of alkylaryl polyglycol ether
as §2
Discs of Chinese cabbage leaves (Brassica pekinensis) infested by all stages of the green peach aphid (Myzus persicae) are sprayed with an active ingredient formulation of the desired concentration.
After 6 days, the activity in % is determined 100% means that all the aphids have been killed; 0% means that none of the aphids have been killed.

[8] = tested on: Spodoptera frugiperda; assay: Spodoptera frugiperda spray test (SPODFR); format: in vivo; conditions: application rate of 500 g/ha; after 7 days
Description: Spodoptera frugiperda—Spray Test (SPODFR)
• Solvent: 78.0 parts by weight of acetone • 1.5 parts by weight of dimethylformamide • Emulsifier: alkylaryl polyglycol ether
To produce an appropriate active ingredient formulation, 1 part by weight of active ingredient is dissolved using the specified parts by weight of solvent and made up with water containing an emulsifier concentration of 1000 ppm until the desired concentration is attained. To produce further test concentrations, the preparation is diluted with emulsifier-containing water.
Leaf discs of maize (Zea mays) are sprayed with an active ingredient formulation of the desired concentration and, after drying, populated with caterpillars of the armyworm (Spodoptera frugiperda).
After 7 days, the activity in % is determined 100% means that all caterpillars have been killed; 0% means that none of the caterpillars have been killed.

[9] = tested on: Lucilia cuprina; assay: Lucilia cuprina test (LUCICU); format: in vivo; conditions: application rate of 100 ppm; L1 larvae; after 2 days
Description: Lucilia cuprina Test (LUCICU)
• Solvent: dimethyl sulphoxide
To prepare an appropriate active ingredient formulation, 10 mg of active ingredient are mixed with 0.5 ml of dimethyl sulphoxide, and the concentrate is diluted with water to the desired concentration.
About 20 L1 larvae of the Australian sheep blowfly (Lucilia cuprina) are transferred into a test vessel containing minced horsemeat and the active ingredient preparation of the desired concentration.
After 2 days, the kill in % is determined 100% means that all the larvae have been killed; 0% means that none of the larvae have been killed.

[10] = pH 2.7, HPLC method [a], read-out: logP[a]
[11] = pH 2.7, HPLC, pH 2.7, read-out: log P[a]

| Structure (SMILES) | logP[a] [4] | logP[b] [6] | chromatographic logP [4, 10] | chromatographic logP [4, 11] | chromatographic logP [6] | efficacy [1] | nematicidal efficacy [2] | efficacy [3] | efficacy [5] | efficacy ([7]; application rate of 500 g/ha) | efficacy ([7]; application rate of 100 g/ha) | efficacy [8] | pest or weed control at 500 g/ha [1] | pest or weed control at 500 g/ha ([5]; Phaedon cochleariae, 168 h, read-out: efficacy) | efficacy (kill) [9] |
| --- | --- | --- | --- | --- | --- | --- | --- | --- | --- | --- | --- | --- | --- | --- | --- |
| COc1nn(-c2cc([S+]([O-])CC(F)(F)F)c(Cl)cc2Cl)c(=O)n1C1CC1 (centres unmarked) [Example 106] | 2.65 | 2.61 |  |  |  | 100% | 90% | 100% | 100% |  |  |  |  |  |  |
| Cc1cc(F)c(N2CC(OCC3CC3)=CC2=O)cc1SCC(F)(F)F [Example 331] | 3.64 | 3.58 |  |  |  | 90% | 90% |  | 83% |  |  |  |  |  |  |
| COC1=CC(=O)N(c2ccc(C#N)c(SCC(F)(F)F)c2)C1 [Example 320] | 2.45 | 2.43 |  |  |  |  |  |  | 100% | 90% |  |  |  |  |  |
| COC1=CC(=O)N(c2cc([S+]([O-])CC(F)(F)F)c(C)cc2F)C1 (centres unmarked) [Example 311, 1-{2-Fluoro-4-methyl-5-[(2,2,2-trifluoroethyl)sulphinyl]phenyl}-4-methoxy-1,5-dihydro-2H-pyrrol-2-one] |  |  | 1.83 | 1.83 | 1.84 |  |  | 100% |  | 90% |  |  | 100% | 100% |  |
| Cc1cc(F)c(-n2ncn(C(C)C)c2=O)cc1SCC(F)(F)F [Example 4, 2-{2-Fluoro-4-methyl-5-[(2,2,2-trifluoroethyl)sulphanyl]phenyl}-4-isopropyl-2,4-dihydro-3H-1,2,4-triazol-3-one] |  |  | 2.82 | 2.82 | 2.97 |  | 90% |  |  |  |  |  | 90% |  | 80% |

Continued, in another order:

| logP[a] [4] | logP[b] [6] | chromatographic logP [4, 10] | chromatographic logP [4, 11] | chromatographic logP [6] | Structure (SMILES) | efficacy [1] | nematicidal efficacy [2] | efficacy [3] | efficacy [5] | efficacy ([7]; application rate of 500 g/ha) | efficacy ([7]; application rate of 100 g/ha) | efficacy [8] | pest or weed control at 500 g/ha [1] | pest or weed control at 500 g/ha ([5]; Phaedon cochleariae, 168 h, read-out: efficacy) | efficacy (kill) [9] |
| --- | --- | --- | --- | --- | --- | --- | --- | --- | --- | --- | --- | --- | --- | --- | --- |
| 2.55 | 2.50 |  |  |  | Cc1cc(F)c(N2CC(OCC3CC3)=CC2=O)cc1[S+]([O-])CC(F)(F)F (centres unmarked) [Example 332] | 90% | 90% |  | 83% |  |  |  |  |  |  |
| 2.34 | 2.37 |  |  |  | C=CCn1c([S+]([O-])CCC)nn(-c2cc([S+]([O-])CC(F)(F)F)c(C)cc2F)c1=O (centres unmarked) [Example 423] | 90% |  | 100% |  | 90% |  |  |  |  |  |
| 2.44 | 2.41 |  |  |  | CCCn1c(OC)nn(-c2cc([S+]([O-])CC(F)(F)F)c(C)cc2F)c1=O (centres unmarked) [Example 411] | 100% |  | 100% | 100% |  | 90% | 100% |  |  |  |
| 3.69 | 3.65 |  |  |  | CCc1nn(-c2cc(SCC(F)(F)F)c(C)cc2F)c(=S)n1C1CC1 [Example 502] | 90% | 90% |  | 83% |  |  |  |  |  |  |
